{
  "source": "patent US9233143B2",
  "about": "“Medicinal agent for preventing exacerbation of malignant tumor, comprising combination of natriuretic peptide receptor GC-A and GC-B agonists” (National Cerebral and Cardiovascular Center, priority 2011, dated 2016)",
  "key": {"tumor cells": {"test_system": "tumor cells", "details": "reports by Vesely et al.; cited from earlier work"}, "[1]": {"test_system": "A549 cells co-cultured with CAFs", "experiment": "Co-culture system of cancer cells and CAFs (mRNA of the A549 cells)", "assay_type": "cell-based, human", "details": "each test substance 1 μM", "protocol": "In a 6-well dish, the A549 cells were cultured at 1×10^5 cells/well. The culture medium was replaced with DMEM culture medium free from FBS the next day, and the cells were further cultured for 24 hours. In a 6-well dish having a cell culture insert (1.0 μm pore size, made by BD), the CAFs were cultured at 5×10^4 cells/well. The culture medium was replaced with DMEM culture medium containing 1% FBS the next day, and the cells were further cultured for 24 hours. To each culture medium of the two kinds of cells, test substances were separately added to prepare test substance addition groups. Control groups with no test substance were also prepared. After two hours of culture, these were subjected to co-culture. The test substance addition groups were ANP groups containing hANP at a final concentration of 1 μM, CNP groups containing hCNP-22 at a final concentration of 1 μM, and ANP+CNP groups containing both hANP and hCNP-22 each at a final concentration of 1 μM. Each of the groups were prepared by adding the test substance to each culture medium of the two kinds of cells.\nOn the 6-well dish of A549 cells treated as above, the above cell culture insert with the CAFs was placed to prepare a co-culture experimental model where only the culture media could pass through the cell culture insert. After 24, 48, and 72 hours of culture, total RNA of the A549 cells only was recovered, cDNA was synthesized, and the mRNA levels of E-cadherin, N-cadherin, VEGF-A, PDGF-B, and IL-6 were measured by quantitative RT-PCR (FIGS. 6 to 8). The experiment using ANP alone (ANP groups: FIG. 6), the experiment using CNP alone (CNP groups: FIG. 7), and the experiment using ANP and CNP in combination (ANP+CNP group: FIG. 8) were independently conducted, where control groups were separately set for each experiment."}},
  "data": [
    {"compound": "CC[C@H](C)[C@@H]1NC(=O)[C@H](CCCNC(=N)N)NC(=O)[C@H](CC(=O)O)NC(=O)[C@H](CCSC)NC(=O)[C@H](CCCNC(=N)N)NC(=O)CNC(=O)CNC(=O)[C@H](Cc2ccccc2)NC(=O)[C@@H](NC(=O)[C@H](CO)NC(=O)[C@H](CO)NC(=O)[C@H](CCCNC(=N)N)NC(=O)[C@H](CCCNC(=N)N)NC(=O)[C@H](CC(C)C)NC(=O)[C@@H](N)CO)CSSC[C@@H](C(=O)N[C@@H](CC(N)=O)C(=O)N[C@@H](CO)C(=O)N[C@@H](Cc2ccccc2)C(=O)N[C@@H](CCCNC(=N)N)C(=O)N[C@@H](Cc2ccc(O)cc2)C(=O)O)NC(=O)CNC(=O)[C@H](CC(C)C)NC(=O)CNC(=O)[C@H](CO)NC(=O)[C@H](CCC(N)=O)NC(=O)[C@H](C)NC(=O)CNC1=O", "note": "[hANP]", "values": [
      {"measurement": "growth-suppressing activity on tumor (cancer) cells", "setting": "tumor cells", "result": "growth-suppressing effect"},
      {"measurement": "gene expression of the growth factors (VEGF-A, PDGF-B) and inflammatory cytokine (IL-6) increased in the co-culture", "setting": "[1]; A549 cells co-cultured with CAFs 24, 48, 72 hours, FIGS. 6 to 8", "result": "could not suppress"},
      {"measurement": "expression ratio of N-cadherin/E-cadherin (N-cad/E-cad), indicator of EMT, in the co-culture", "setting": "[1]; A549 cells co-cultured with CAFs, FIGS. 6D, 7D, 8D", "result": "did not show any effect"}
    ]}
  ]
}
